Data from ChEMBL document CHEMBL1201862, “PubChem BioAssay data set” (2004).
Each block holds one molecule with its values, some of them ahead of it. Active and inactive are the calls of the source.

Columns and labels:
[1] = biological target: T1, DNA repair protein RAD52 homolog (Homo sapiens, UniProt P43351); type: functional, biochemical
T1 sequence (P43351 whole entry): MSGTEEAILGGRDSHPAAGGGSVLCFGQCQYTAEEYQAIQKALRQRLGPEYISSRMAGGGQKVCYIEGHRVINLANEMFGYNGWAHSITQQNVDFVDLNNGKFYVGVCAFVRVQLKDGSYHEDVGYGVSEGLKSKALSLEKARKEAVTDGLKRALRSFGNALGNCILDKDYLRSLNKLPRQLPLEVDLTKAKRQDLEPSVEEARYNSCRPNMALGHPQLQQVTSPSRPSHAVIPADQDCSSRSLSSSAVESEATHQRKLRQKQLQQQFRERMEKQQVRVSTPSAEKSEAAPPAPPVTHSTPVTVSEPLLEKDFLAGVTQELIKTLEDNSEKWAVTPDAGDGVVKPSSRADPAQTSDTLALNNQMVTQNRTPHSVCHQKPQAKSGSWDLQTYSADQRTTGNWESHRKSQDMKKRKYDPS

[2] = reduction of Shn3 3'UTR-driven luciferase in osteoblasts – cell-based, Clone20 osteoblasts, firefly luciferase, cherry-picked, dose response (AID 624132); type: functional;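 further: firefly luciferase luminescence from reporter carrying the Shn3 3'UTR in osteoblasts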
[3] = non-specific 3'UTR reporter inhibition in Clone20-Shn3RL – cell-based, Renilla luciferase, cherry-picked, counter-screen for Shn3 inhibitor project, dose response (AID 624133); type: functional
[4] = biological target: T2, Protein skinhead-1 (Caenorhabditis elegans, UniProt P34707); type: functional
T2 sequence (P34707 whole entry): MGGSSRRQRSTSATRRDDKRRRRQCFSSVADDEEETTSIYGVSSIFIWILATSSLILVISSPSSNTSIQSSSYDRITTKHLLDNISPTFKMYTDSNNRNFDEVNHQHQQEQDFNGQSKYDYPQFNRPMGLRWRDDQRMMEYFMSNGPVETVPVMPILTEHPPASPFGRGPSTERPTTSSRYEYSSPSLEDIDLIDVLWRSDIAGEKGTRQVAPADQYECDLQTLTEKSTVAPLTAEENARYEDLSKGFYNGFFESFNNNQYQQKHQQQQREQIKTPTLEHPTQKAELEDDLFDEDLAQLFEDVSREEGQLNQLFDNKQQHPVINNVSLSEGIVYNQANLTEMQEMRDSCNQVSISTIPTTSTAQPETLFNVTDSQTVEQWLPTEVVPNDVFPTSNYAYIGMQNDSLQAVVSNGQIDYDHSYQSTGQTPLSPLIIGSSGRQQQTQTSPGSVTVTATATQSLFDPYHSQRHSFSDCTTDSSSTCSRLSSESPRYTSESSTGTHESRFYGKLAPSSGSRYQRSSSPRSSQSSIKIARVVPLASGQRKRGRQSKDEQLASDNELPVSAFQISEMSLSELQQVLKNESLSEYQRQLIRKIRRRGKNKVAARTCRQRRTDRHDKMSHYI

[5] = biological target: Paired box protein Pax-8 (Homo sapiens, UniProt Q06710); assay: PAX8 transcriptional activity inhibition in RMG-I – RMG-I cells, luciferase, cherry-pick, dose response (AID 687027); type: functional, cell-based;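 further: luciferase reporter driven by Pax8 target thyroperoxidase promoter measured by SteadyGlo luminescence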
Paired box protein Pax-8, sequence (Q06710 whole entry): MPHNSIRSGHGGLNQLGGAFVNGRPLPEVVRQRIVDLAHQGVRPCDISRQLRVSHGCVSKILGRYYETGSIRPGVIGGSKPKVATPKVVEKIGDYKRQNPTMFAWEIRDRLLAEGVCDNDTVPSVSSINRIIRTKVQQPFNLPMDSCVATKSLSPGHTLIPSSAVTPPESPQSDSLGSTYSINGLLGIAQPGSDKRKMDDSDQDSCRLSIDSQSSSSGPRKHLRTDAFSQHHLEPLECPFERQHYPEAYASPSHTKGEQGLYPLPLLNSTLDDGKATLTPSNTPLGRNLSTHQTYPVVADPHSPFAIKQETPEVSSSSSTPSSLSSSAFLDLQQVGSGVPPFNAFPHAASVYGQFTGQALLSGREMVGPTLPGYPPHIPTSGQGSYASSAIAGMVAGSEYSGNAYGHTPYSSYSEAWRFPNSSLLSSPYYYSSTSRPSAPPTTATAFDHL

[6] = HGIII-sPLA2 enzyme inhibition potency – biochemical, QFRET, IC50, dose response (AID 743457);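 further: green fluorescence rise as the enzyme cleaves BODIPY PC-A2 in liposomes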
[7] = NIH-3T3 fibroblast cytotoxicity, dose response, cytotoxicity control, cell-based, fluorescence, Alamar Blue, secondary assay (AID 2327); type: functional;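 further: NIH-3T3 mouse fibroblasts cultured with fluconazole at 8 µg/mL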
[8] = cells; type: functional, cell-based
[9] = cells; type: functional, cell-based; remark: listed apart in the source
[10] = biological target: T3, Ubiquitin-conjugating enzyme E2 N (Homo sapiens, UniProt P61088); type: functional;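 further: Dose-response confirmation in a TR-FRET assay detecting UBC13-driven polyubiquitin chain formation, inhibition measured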
T3 sequence (P61088 whole entry): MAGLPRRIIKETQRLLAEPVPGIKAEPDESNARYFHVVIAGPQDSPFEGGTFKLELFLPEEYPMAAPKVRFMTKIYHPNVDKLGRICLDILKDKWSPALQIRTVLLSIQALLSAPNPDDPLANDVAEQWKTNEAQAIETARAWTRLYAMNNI

[11] = blockers of HIV-1 envelope-mediated cell-cell fusion – cherry-pick, dose response (AID 652057); type: functional, cell-based
[12] = viability loss in CEM21 cells – cell-based, CellTiter-Glo luminescence, cherry-picked, cytotoxicity control for viral fusion inhibitor project, dose response (AID 652042); type: functional;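 further: potency for signal decrease meaning cytotoxicity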
[13] = blockers of HIV-1 ZM109 envelope-driven cell-cell fusion – HeLa effector, CEM target cells, luciferase, cherry-pick, dose response (AID 652058); type: functional, cell-based;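 further: luciferase signal from HIV-1 Env mediated cell-cell fusion of effector and target cells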
[14] = HIV-1 AD8 envelope cell-cell fusion blockers – cherry-pick, dose response (AID 652062); type: functional, cell-based;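 further: luciferase signal from cell-cell fusion driven by HIV-1 clade B AD8 Env; potency is for inhibitors of fusion seen as a drop in luminescence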
[15] = biological target: T4, Cytochrome P450 1A2 (Homo sapiens, UniProt P05177);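 further: PubChem cytochrome P450 panel assay, CYP1A2 panel member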
T4 sequence (P05177 whole entry): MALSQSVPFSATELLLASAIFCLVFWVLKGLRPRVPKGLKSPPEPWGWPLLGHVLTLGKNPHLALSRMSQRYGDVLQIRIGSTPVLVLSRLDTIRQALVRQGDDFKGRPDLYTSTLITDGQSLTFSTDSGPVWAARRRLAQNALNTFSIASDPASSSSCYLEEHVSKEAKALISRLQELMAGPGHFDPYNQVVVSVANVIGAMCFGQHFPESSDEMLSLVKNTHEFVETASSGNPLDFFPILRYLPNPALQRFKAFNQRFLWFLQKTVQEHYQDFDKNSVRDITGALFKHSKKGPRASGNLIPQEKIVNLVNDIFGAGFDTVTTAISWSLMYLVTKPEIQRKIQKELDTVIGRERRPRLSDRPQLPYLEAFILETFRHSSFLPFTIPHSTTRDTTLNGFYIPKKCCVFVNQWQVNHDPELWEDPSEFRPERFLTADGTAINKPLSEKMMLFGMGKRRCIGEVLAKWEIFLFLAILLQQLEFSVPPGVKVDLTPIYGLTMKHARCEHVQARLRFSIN

[16] = biological target: Cytochrome P450 2C9 (Homo sapiens, UniProt P11712)
Cytochrome P450 2C9, sequence (P11712 whole entry): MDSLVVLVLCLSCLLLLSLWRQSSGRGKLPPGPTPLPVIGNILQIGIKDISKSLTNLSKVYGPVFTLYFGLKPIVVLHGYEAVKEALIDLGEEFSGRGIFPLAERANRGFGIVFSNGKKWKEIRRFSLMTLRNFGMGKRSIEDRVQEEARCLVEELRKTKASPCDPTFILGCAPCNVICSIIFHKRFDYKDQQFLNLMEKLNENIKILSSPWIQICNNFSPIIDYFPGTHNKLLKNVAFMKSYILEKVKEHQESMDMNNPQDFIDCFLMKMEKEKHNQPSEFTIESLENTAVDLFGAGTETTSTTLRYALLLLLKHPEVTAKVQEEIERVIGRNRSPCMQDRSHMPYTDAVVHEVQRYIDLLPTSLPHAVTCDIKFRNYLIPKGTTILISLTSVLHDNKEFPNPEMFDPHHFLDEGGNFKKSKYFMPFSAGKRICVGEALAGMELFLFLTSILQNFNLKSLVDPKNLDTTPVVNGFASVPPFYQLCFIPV

[17] = Trypanosoma cruzi growth suppression in host cells – NIH3T3 host cells, beta-gal luminescence, confirmation (AID 2044); type: functional, cell-based;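 further: intracellular parasites grown in NIH/3T3 mouse fibroblasts as host cells; luminescent beta-galactosidase reporter signal from transgenic T. cruzi replicating inside host cells; inhibitors lower the luminescence signal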
[18] = NIH3T3 cell viability loss – ATP luminescence, mouse fibroblasts, counter-screen, dose response (AID 2010); type: functional, cell-based;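 further: cells exposed to compound for about 90 hours before reading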
[19] = system: INS1; assay: INS-1E survival protection against cytokine death – cell-based, luminescence, retest, dose response (AID 449756); type: functional; settings: Rattus norvegicus;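 further: cell death triggered by IL-1 beta plus TNF-alpha plus IFN-gamma mixture; protective hits raise ATP signal compared with cytokine alone wells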
[20] = A549 cell cytotoxicity, dose response, cytotoxicity control, plate reader, cherry-pick, antagonist series (AID 743412); type: functional, cell-based

AC50 [1]: 19.2 µM (active)
SMILES: Cc1ccc(F)cc1-c1cc2nc(NCCCN(C)C)n(C)c(=O)c2s1

SMILES: COC(=O)C12OCC34C(CC5C(C)=C(O)C(=O)CC5(C)C3C(O)C1O)OC(=O)C(OC(=O)/C=C(\C)C(C)C)C24 (stereo not drawn)
AC50 [2]: < 0.26 µM (active)
AC50 [3]: < 0.26 µM (active)
IC50 [4]: 42.7 µM (active)
AC50 [5]: < 0.26 µM (active)

IC50 [4]: > 100 µM (inactive)
SMILES: Cc1ccc(C(=O)NC(=S)Nc2ccccc2C(F)(F)F)c(C)c1

SMILES: OC1CC2CCC(C1)N2CCCN1c2ccccc2Sc2ccc(Cl)cc21 (stereo not drawn)
AC50 [1]: 12.9 µM (active)

IC50 [6]: > 122 µM (inactive)
SMILES: Sc1nnc(-c2ccc(Cl)cc2Cl)n1Cc1ccccc1

SMILES: CCOC(=O)c1c(-c2ccccc2)oc2ccc(OCC(O)CN(C)C)cc12 (stereo not drawn)
EC50 [7]: 10 µM (inconclusive)
EC50 [8]: > 350 µM (not active)
EC50 [9]: 21.7 µM (active)
IC50 [10]: > 20 µM (inactive)
AC50 [1]: 15.5 µM (active)

SMILES: C[C@H]1CN([C@@H](C)CO)C(=O)Cc2cc(NC(=O)Nc3cccc4ccccc34)ccc2O[C@H]1CN(C)S(=O)(=O)c1ccccc1
AC50 [11]: < 0.26 µM (active)
AC50 [12]: 33.8 µM (active)
AC50 [13]: < 0.26 µM (active)
AC50 [14]: 1.07 µM (active)

AC50 [15]: 0.251 µM (inconclusive)
AC50 [16]: inconclusive
SMILES: CC(C)CCN1CC(C(=O)N2CCN(c3ccc(F)cc3)CC2)CC1=O (stereo not drawn)

SMILES: COc1ccc(/C(C)=N/NC(=O)c2cccc(S(=O)(=O)N3CCCC3)c2)c(O)c1
EC50 [8]: 11.6 µM (active)
EC50 [17]: 1.05 µM (active)
EC50 [9]: > 350 µM (not active)
EC50 [18]: 3.07 µM (active)
AC50 [19]: 0.631 µM (active)
AC50 [12]: 3.55 µM (active)
AC50 [14]: 17.4 µM (active)

AC50 [16]: inconclusive
SMILES: O=C(Nc1ccccc1)c1cc(-c2ccccc2Cl)no1

SMILES: COc1ccc2[nH]c3c(c2c1)CCN1C(=O)N([C@@H](C)C(=O)NCc2ccc(C)cc2)C(=O)[C@]31C
AC50 [20]: > 52 µM (inactive)
